This is an account of results in US8791132B2, “Compounds and methods for treatment of hypertension” (Medivation Technologies, Inc., priority 2011, dated 2014).

Assay [1] has as its target T1, human recombinant adrenergic α2B receptor (Homo sapiens, UniProt P18089).
T1 construct: expressed in transfected cells; host or cells: CHO-K1
T1 sequence (P18089 1-450): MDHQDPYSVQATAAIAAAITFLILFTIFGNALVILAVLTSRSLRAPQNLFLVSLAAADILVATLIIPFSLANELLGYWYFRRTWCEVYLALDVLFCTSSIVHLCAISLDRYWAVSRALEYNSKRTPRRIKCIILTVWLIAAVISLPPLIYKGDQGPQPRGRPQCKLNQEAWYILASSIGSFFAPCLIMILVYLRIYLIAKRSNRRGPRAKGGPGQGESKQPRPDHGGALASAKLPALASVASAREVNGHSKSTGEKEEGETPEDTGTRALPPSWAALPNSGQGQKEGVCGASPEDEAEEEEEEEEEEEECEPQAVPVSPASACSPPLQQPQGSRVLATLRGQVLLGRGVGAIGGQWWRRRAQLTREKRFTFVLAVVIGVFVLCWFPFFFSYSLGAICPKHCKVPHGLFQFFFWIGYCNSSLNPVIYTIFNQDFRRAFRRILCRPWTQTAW
The assay is described as follows: Radioligand binding, adrenergic α2B ([3H]Rauwolscine). Put shortly: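 Values are percent inhibition of specific radioligand binding. The receptor, expressed in CHO-K1 cells, was exposed to 2.5 nM [3H]Rauwolscine at 25° C for 60 min, with 10 μM Prazosin marking non-specific binding.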

In assay [2] the target is T2, human recombinant adrenergic α2A receptor (Homo sapiens, UniProt P08913).
T2 construct: expressed in transfected cells; host or cells: insect Sf9 cells
T2 sequence (P08913 1-465): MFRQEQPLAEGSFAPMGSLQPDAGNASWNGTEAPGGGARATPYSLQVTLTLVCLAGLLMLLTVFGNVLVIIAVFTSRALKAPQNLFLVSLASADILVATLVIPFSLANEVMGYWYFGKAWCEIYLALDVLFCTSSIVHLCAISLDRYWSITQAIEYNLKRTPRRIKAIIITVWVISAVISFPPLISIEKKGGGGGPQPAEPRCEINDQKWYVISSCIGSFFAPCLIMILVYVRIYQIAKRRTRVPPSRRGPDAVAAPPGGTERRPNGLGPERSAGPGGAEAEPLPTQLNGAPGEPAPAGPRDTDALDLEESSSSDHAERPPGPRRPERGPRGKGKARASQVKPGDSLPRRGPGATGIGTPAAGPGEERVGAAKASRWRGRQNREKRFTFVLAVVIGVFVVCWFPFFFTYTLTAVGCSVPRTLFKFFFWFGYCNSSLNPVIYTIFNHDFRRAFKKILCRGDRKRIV
The assay is described as follows: Radioligand binding, adrenergic α2A ([3H]MK-912). In outline: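 Sf9-expressed receptor was incubated with compound for 60 min at 25 °C in modified Tris-HCl buffer, pH 7.4. Nonspecific binding was taken as that remaining with 10 μM WB-4101.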

Assay [3] concerns the target T3, rat adrenergic α1B receptor (Rattus norvegicus, UniProt P15823).
T3 construct: rat adrenergic α1B receptor obtained from Wistar Rat liver; from tissue; host or cells: Wistar rat liver
T3 sequence (P15823 1-515): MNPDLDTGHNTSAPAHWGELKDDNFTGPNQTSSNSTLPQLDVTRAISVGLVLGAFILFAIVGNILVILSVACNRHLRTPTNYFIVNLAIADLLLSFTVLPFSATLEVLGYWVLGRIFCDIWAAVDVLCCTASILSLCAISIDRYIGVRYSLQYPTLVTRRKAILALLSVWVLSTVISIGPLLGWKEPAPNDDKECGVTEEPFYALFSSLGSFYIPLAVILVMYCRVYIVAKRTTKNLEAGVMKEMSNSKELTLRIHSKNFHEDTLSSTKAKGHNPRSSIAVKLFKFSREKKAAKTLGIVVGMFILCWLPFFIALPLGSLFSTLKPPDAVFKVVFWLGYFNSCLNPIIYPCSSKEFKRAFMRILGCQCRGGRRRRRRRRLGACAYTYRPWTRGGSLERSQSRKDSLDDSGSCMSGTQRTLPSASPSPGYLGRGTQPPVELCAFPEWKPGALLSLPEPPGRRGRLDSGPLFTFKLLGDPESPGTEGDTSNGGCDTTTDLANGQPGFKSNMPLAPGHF
In words: Radioligand binding, adrenergic α1B ([3H]Prazosin). In outline:
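Incubation ran 60 min at 25 °C in Tris-HCl buffer (50 mM, pH 7.4, 0.5 mM EDTA) with Wistar rat liver α1B receptor. 10 μM phentolamine set non-specific binding.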

In assay [4] the target is T4, human recombinant adrenergic α1D receptor (Homo sapiens, UniProt P25100).
T4 construct: expressed in transfected cells; host or cells: HEK-293
T4 sequence (P25100 1-572): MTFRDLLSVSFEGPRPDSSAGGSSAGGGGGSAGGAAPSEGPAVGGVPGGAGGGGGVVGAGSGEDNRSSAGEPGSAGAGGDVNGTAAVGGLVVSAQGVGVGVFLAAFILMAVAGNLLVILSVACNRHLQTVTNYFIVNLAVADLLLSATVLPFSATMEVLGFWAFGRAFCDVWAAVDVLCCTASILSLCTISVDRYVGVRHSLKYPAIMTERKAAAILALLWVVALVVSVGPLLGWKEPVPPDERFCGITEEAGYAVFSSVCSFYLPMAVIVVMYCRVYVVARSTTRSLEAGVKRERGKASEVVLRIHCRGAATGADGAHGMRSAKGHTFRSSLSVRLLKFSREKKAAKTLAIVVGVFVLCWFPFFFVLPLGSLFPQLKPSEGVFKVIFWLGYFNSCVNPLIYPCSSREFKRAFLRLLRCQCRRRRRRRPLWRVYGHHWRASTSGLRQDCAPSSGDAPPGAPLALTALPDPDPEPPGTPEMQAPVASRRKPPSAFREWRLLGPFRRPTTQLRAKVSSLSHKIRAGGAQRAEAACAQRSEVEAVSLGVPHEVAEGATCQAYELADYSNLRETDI
The assay is described as follows: Radioligand binding, adrenergic α1D ([3H]Prazosin). As to conditions: for Percentage inhibition of ligand binding, Adrenergic α1D: 0.1 µM. As for the experimental part: Compounds were incubated with 0.6 nM [3H]Prazosin for 60 min at 25° C. Non-specific binding was estimated in the presence of 10 μM phentolamine. Receptor proteins were filtered and washed, the filters were then counted to determine [3H]Prazosin specifically bound. […] Biochemical assay results are presented as the percent inhibition of specific binding in Table B1.

Where [5] appears, read: read-out: Percentage inhibition of ligand binding, Adrenergic α2B (0.1 μM), compound at 0.1 μM, [3H]Rauwolscine, repeat datapoints each shown.
Where [6] appears, read: read-out: Percentage inhibition of ligand binding, Adrenergic α2A (0.1 μM), compound at 0.1 μM, [3H]MK-912, repeat datapoints each shown.
The mark [7] stands for this setting: read-out: Percentage inhibition of ligand binding, Adrenergic α1B (0.1 μM), compound at 0.1 μM, [3H]Prazosin, repeat datapoints each shown.
[8] abbreviates: read-out: Percentage inhibition of ligand binding, Adrenergic α1D (0.1 μM), compound at 0.1 μM, [3H]Prazosin, repeat datapoints each shown.
[9] abbreviates: 0.1 μM compound, read-out: Percentage inhibition of ligand binding, Adrenergic α2B.
The mark [10] stands for this setting: 0.1 μM compound, read-out: Percentage inhibition of ligand binding, Adrenergic α2A.
[11] abbreviates: 0.1 μM compound, read-out: Percentage inhibition of ligand binding, Adrenergic α1B.
Where [12] appears, read: 0.1 μM compound, read-out: Percentage inhibition of ligand binding, Adrenergic α1D.

Where “and” joins values, the source holds several entries; their conditions need not be identical. Equal values may be shown once. Read-outs that look alike come from different tables or passages of the source.

With `C/C(=C\n1c2c(c3cc(C)ccc31)CCN(C)CC2)c1ccc(Cl)c(Cl)c1` [compound 238], the inhibition at 0.1 µM in assay [1] (setting [5]) stood at 98%; in assay [2] (setting [6]), 94%; in assay [3] (setting [7]), 67%; in assay [4] (setting [8]), 25%.
With `CSc1ccc(/C(C)=C/n2c3c(c4cc(Cl)ccc42)CN(C)CC3)cc1` [compound 280], the inhibition at 0.1 µM in assay [1] (setting [9]) was 98%; in assay [2] (setting [10]), 97%; in assay [3] (setting [11]), 76%; in assay [4] (setting [12]), 65%.
With `Cc1ccc2c(c1)c1c(n2C2=C(c3cccc4ccccc34)CCC2)CCN(C)C1` [compound 306, 2,8-dimethyl-5-(2-(naphthalen-1-yl)cyclopent-1-enyl)-2,3,4,5-tetrahydro-1H-pyrido[4,3-b]indole], the inhibition at 0.1 µM in assay [1] (setting [9]) came out at 14%; in assay [2] (setting [10]), 78%; in assay [3] (setting [11]), 18%; in assay [4] (setting [12]), 12%.
In the case of `C/C(=C\n1c2c(c3cc(C)ccc31)CN(C)CC2)c1cn[nH]c1` [compound 115], the inhibition at 0.1 µM in assay [1] (setting [5]) was 94%; in assay [2] (setting [6]), 21%; in assay [3] (setting [7]), 19%; in assay [4] (setting [8]), 24%.
Take `Cc1ccc2c(c1)c1c(n2CCc2cnc3ccccc3c2)CCN(C)C1` [compound 320]: the inhibition at 0.1 µM was found to be 18% in assay [1] (setting [9]), 66% in assay [2] (setting [10]), 61% in assay [3] (setting [11]) and 56% in assay [4] (setting [12]).
For `C/C(=C\n1c2c(c3cc(C)ccc31)CCN(C)C2)c1ccc(Cl)cc1` [compound 224], the inhibition at 0.1 µM in assay [1] (setting [5]) turned out to be 69%; in assay [2] (setting [6]) it was 52%; in assay [3] (setting [7]), 70%; in assay [4] (setting [8]), 26%.
As to `Cc1ccc2c(c1)c1c(n2CCc2ccc3c(c2)CCCC3)CCN(C)C1` [compound 332, 2,8-dimethyl-5-[2-(5,6,7,8-tetrahydro-naphthalen-2-yl)-ethyl]-2,3,4,5-tetrahydro-1H-pyrido[4,3-b]indole], the inhibition at 0.1 µM in assay [1] (setting [9]) turned out to be 86%; in assay [2] (setting [10]) it was 94%; in assay [3] (setting [11]) it was 41%; in assay [4] (setting [12]), 51%.
Regarding `Cc1ccc(CCn2c3c(c4cc(C)ccc42)CN(C)CC3)nc1` [compound 299, 2,8-dimethyl-5-[2-(5-methyl-pyridin-2-yl)-ethyl]-2,3,4,5-tetrahydro-1H-pyrido[4,3-b]indole], the inhibition at 0.1 µM in assay [1] (setting [9]) worked out at 54%; in assay [2] (setting [10]) it was 52%; in assay [3] (setting [11]) it was 78%; in assay [4] (setting [12]), 47%.
As for `C/C(=C\n1c2c(c3cc(C)ccc31)CCN(C)CC2)c1ccncn1` [compound 106], the inhibition at 0.1 µM stood at 79% in assay [1] (setting [5]), 6% in assay [2] (setting [6]), 65% in assay [3] (setting [7]) and 45% in assay [4] (setting [8]).
Consider `COc1ccc(/C(C)=C/n2c3c(c4cc(C)ccc42)CN(C)CC3)cn1` [compound 266], for which the inhibition at 0.1 µM worked out at 92% in assay [1] (setting [9]), 62% in assay [2] (setting [10]), 63% in assay [3] (setting [11]) and 72% in assay [4] (setting [12]).
For `C/C(=C/n1c2c(c3cc(C)ccc31)CN(C)CC2)c1ccnn1C` [compound 273], the inhibition at 0.1 µM came out at 89% in assay [1] (setting [9]), 67% in assay [2] (setting [10]), 88% in assay [3] (setting [11]) and 71% in assay [4] (setting [12]).
On to `C/C(=C/n1c2c(c3cc(C)ccc31)CN(C)CC2)c1cccc2[nH]ncc12` [compound 290], for which the inhibition at 0.1 µM in assay [1] (setting [9]) was 96%; in assay [2] (setting [10]) it was 80%; in assay [3] (setting [11]), 90%; in assay [4] (setting [12]) it was 79%.
As for `COc1ccc(C(C)(O)Cn2c3c(c4cc(C)ccc42)CN(C)CC3)cc1F` (stereo not shown) [II-163], the inhibition at 0.1 µM in assay [1] (setting [5]) came to 86%; in assay [2] (setting [6]) it was 41%; in assay [3] (setting [7]) it was 66%; in assay [4] (setting [8]), 28%.
With `Cc1ccc2c(c1)c1c(n2CCc2ccccc2)CCN(C)C1` [compound 200], the Ki in assay [2] was 1.63 nM and 3.21 nM. Besides, the inhibition at 0.03 µM in assay [2] (read-out: Percentage inhibition of ligand binding, Adrenergic α2A (0.03 μM), compound at 0.03 μM, [3H]MK-912, repeat datapoints each shown) worked out at 81%; in assay [3] (read-out: Percentage inhibition of ligand binding, Adrenergic α1B (0.03 μM), compound at 0.03 μM, [3H]Prazosin, repeat datapoints each shown), 63%. Further, the inhibition at 0.1 µM in assay [2] (setting [6]) amounted to 92%; in assay [3] (setting [7]) it was 83%; in assay [4] (setting [8]), 69%.
`CC(Cn1c2c(c3ccccc31)CN(C)CC2)c1ccc(F)cc1` (single isomer, unassigned) [272b]: in assay [2] (0.1 μM compound, 0.1 µM), the “Percentage inhibition of ligand binding, Adrenergic α2A” value was 68%. The “Percentage inhibition of ligand binding, Adrenergic α1B” value (“Percentage inhibition … Adrenergic α1B” below) in assay [3] (0.1 μM compound, 0.1 µM) came out at 30%. Besides, the “Percentage inhibition of ligand binding, Adrenergic α1D” value (“Percentage inhibition … Adrenergic α1D” below) in assay [4] (0.1 μM compound) was 36%.
With `Cc1ccc2c(c1)c1c(n2CC(C)c2ccc(F)cc2)CCN(C)C1` (single isomer, unassigned) [288b], the “Percentage inhibition of ligand binding, Adrenergic α2A” value in assay [2] (0.1 μM compound) was 67%. Besides, the “Percentage inhibition … Adrenergic α1B” value in assay [3] (0.1 μM compound) came to 39%. Also, the “Percentage inhibition … Adrenergic α1D” value in assay [4] (0.1 μM compound) was determined as 17%.
On to `Cc1ccc2c(c1)c1c(n2CC(C)c2ccc(C)nc2)CCN(C)C1` (single isomer, unassigned) [289a], for which, in assay [2] (setting [10]), the inhibition at 0.1 µM turned out to be 60%. Moreover, the “Percentage inhibition … Adrenergic α1B” value in assay [3] (0.1 μM compound, 0.1 µM) is reported as 51%. Further, the “Percentage inhibition … Adrenergic α1D” value in assay [4] (0.1 μM compound) was 57%.

The inhibition is how much of the control response was suppressed. By Ki is commonly meant the equilibrium dissociation constant of an inhibitor or competing ligand from its target.
